Measured values from article PMC6810216, “Human-to-Human Transmission of Influenza A(H3N2) Virus with Reduced Susceptibility to Baloxavir, Japan, February 2019” (Emerging Infectious Diseases, 2019).

Legend:
[1] = test system: influenza A(H3N2) viruses isolated in the 2018–19 season in Japan; experiment: microbe, parasite or virus in culture; format: cell-based; conditions: n = 83, read-out: Median IC50 + SD
[2] = molecular target: neuraminidase (NA) of A(H3N2) of 2018–19 (Influenza A virus (H3N2), UniProt A0A193ACB1); format: biochemical; conditions: n = 170; read-out: Median IC50 + SD

Row | Compound | IC50 [1] [pM] | IC50 [2] [pM]
2 | CCC(CC)[C@H](NC(C)=O)[C@@H]1[C@H](O)[C@@H](C(=O)O)C[C@H]1N=C(N)N [Peramivir, peramivir] |  | 130
